Consider 1 compound from patent US20050124618A1, “Methods of modulating angiogenesis and cancer cell proliferation” (priority 2003, published 2005).

“Also recorded” adds a separate entry of the source.

The test system of the assay is 9L gliosarcoma tumors. The assay can be described thus: Ki-67 immunohistochemistry of 9L tumor sections. The class given is in vivo, rat. The note with it: chronic treatment with HET0016. The protocol: Assessment of tumor volume: The formalin fixed brains were placed in Coronal rat brain matrix, and sliced into 3-mm blocks. These blocks were then embedded in paraffin and […] thick sections were prepared. Sections prepared for H&E staining were placed onto uncoated slides. Sections for immunohistochemistry were placed onto positively charged super frosted slides. The serial sections were either stained with H&E for to assess the size of the tumor or immunohistochemically process for Ki-67 antigen to assess for the degree of proliferation.
The sections prepared for immunohistochemistry were deparaffinized by boiling the sections in a citric buffer (pH 6.0) for 10 minutes on a hot plate. The sections were cooled to room temperature, placed in a blocking buffer [2% normal serum, 1% BSA in PBS] for 1 hr, rinsed twice in a wash buffer [0.05 Tween-20 in PBS], blocked with hydrogen peroxide for 10 min and rinsed in wash buffer. The sections were then incubated for 30 min with rabbit polyclonal anti-ki67 antibody (Abcam Inc., Cambridge, Mass.; 1:200 dilution in 1.0% BSA in PBS). The sections were rinsed in wash buffer, incubated with biotinylated Goat anti-rabbit IgG (Vector Laboratories, Inc., Burlingame, Calif.; 1:500 in PBS) for 30 min, and rewashed. […]

With `CCCCc1ccc(N=CNO)c(C)c1` [HET0016, N-hydroxy-N′-(4-butyl-2 methylphenyl) formamidine], the “number of mitotic (Ki67-positive) cells in the 9L tumor” value was “reduction in mitosis; also recorded: greatly reduced the number of mitotic cells”.
